Measurements: patent US20210347727A1 (BLADE THERAPEUTICS, INC., priority 2017, published 2021)

Assays:
[1] = biological target: T1, Human Calpain 9/NS1 (Homo sapiens, UniProt O14815); experiment: Biochemical inhibition of calpain 9, continuous fluorescence (FRET substrate) assay; settings: mean; read-out: Human Calpain 9/NS1 IC50 (nM)_MEAN
T1 sequence (O14815 1-690): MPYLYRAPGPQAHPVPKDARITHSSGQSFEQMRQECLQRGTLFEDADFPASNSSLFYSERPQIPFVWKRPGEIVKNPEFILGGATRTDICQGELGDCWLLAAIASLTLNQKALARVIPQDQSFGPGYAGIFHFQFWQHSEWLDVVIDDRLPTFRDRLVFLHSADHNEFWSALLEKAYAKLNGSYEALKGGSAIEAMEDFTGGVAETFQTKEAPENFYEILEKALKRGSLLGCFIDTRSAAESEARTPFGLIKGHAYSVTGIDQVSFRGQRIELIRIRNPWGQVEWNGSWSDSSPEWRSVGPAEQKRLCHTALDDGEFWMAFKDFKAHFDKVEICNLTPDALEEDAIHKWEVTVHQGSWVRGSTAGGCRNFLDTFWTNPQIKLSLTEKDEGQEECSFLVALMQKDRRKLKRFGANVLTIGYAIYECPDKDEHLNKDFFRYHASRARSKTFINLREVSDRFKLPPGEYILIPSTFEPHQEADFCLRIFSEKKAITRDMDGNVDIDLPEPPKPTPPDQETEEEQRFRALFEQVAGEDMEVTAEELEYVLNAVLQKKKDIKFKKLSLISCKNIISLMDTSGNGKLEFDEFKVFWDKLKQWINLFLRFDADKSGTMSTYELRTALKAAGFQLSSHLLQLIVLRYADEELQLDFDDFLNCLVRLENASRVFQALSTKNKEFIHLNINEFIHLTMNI
T1 sequence (P04632 1-268 partner): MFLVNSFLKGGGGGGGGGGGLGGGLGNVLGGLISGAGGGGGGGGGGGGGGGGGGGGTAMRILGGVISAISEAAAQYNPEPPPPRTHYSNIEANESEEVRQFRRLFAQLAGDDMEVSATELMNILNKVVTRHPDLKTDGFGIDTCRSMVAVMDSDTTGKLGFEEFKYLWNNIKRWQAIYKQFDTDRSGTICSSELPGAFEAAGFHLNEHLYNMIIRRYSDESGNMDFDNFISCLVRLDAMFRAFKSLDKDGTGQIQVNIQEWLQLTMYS
Method: (§1) Calpain 1, 2, and 9 activity and inhibition thereof are assessed by means of a continuous fluorescence assay. The SensoLyte 520 Calpain substrate (Anaspec Inc) is optimized for detecting calpain activity. This substrate contains a novel internally quenched 5-FAM/QXL™ 520 FRET pair. Calpains 1, 2, and 9 cleave the FRET substrate into two separate fragments resulting in an increase of 5-FAM fluorescence that is proportional to calpain activity.
(§2) Assays are typically setup in black 384-well plates using automated liquid handling as follows. Calpain assay base buffer typically contains 50 mM Tris, pH 7.5, 100 mM NaCl and 1 mM DTT. Inhibitors are serially diluted in DMSO and used to setup 2× mixtures with calpains in the aforementioned buffer. After incubation at ambient temperature (25 C), the reaction is initiated by adding a 2× mix of the fluorescent peptide substrate and CaCl2 (required for in-situ calpain activation) in the same buffer. Reaction progress curve data are typically collected for 10 min using excitation/emission wavelengths of 490 nm/520 nm on SpectraMax i3x or the FLIPR-Tetra plate readers (Molecular Devices Inc). Reaction rates were calculated from progress curve slopes typically over 1-5 min. Dose response curves (rate vs. log inhibitor concentration) were typically fit to a 4-parameter logistic function to extract IC50 values.

[2] = biological target: T2, Human Calpain 1/NS1 (Homo sapiens, UniProt P07384); experiment: Biochemical inhibition of calpain 1, continuous fluorescence (FRET substrate) assay; settings: mean; read-out: Human Calpain 1/NS1 IC50 (nM)_MEAN
T2 sequence (P07384 1-714): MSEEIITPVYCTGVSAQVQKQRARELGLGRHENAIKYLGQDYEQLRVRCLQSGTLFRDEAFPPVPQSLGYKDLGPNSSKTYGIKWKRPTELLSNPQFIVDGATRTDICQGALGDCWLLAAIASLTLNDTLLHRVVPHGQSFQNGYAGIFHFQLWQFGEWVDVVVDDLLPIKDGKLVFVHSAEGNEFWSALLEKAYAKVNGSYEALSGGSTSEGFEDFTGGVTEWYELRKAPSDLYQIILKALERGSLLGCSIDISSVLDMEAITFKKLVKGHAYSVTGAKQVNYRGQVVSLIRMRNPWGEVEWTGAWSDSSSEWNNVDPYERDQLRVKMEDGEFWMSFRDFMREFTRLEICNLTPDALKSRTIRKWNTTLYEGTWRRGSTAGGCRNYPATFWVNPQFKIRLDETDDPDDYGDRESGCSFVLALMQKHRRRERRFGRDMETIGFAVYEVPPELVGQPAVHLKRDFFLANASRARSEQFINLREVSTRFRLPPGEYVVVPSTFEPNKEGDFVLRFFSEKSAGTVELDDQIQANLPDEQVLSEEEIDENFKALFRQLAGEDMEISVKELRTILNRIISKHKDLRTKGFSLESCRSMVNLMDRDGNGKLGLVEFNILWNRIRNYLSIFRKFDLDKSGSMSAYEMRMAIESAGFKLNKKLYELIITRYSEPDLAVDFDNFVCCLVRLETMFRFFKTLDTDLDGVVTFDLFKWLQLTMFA
T2 sequence (P04632 1-268 partner): T1 sequence (P04632 1-268 partner)
Method: as §1, §2

[3] = tested on: calpain activity in SH-SY5Y cells (Spectrin); experiment: SH-SY5Y Spectrin cellular calpain inhibition; format: cell-based
[4] = biological target: T3, Human Calpain 2/NS1 (Homo sapiens, UniProt P17655); experiment: Biochemical inhibition of calpain 2, continuous fluorescence (FRET substrate) assay; settings: mean; read-out: Human Calpain 2/NS1 1C50 [sic] (nM)_MEAN
T3 sequence (P17655 1-700): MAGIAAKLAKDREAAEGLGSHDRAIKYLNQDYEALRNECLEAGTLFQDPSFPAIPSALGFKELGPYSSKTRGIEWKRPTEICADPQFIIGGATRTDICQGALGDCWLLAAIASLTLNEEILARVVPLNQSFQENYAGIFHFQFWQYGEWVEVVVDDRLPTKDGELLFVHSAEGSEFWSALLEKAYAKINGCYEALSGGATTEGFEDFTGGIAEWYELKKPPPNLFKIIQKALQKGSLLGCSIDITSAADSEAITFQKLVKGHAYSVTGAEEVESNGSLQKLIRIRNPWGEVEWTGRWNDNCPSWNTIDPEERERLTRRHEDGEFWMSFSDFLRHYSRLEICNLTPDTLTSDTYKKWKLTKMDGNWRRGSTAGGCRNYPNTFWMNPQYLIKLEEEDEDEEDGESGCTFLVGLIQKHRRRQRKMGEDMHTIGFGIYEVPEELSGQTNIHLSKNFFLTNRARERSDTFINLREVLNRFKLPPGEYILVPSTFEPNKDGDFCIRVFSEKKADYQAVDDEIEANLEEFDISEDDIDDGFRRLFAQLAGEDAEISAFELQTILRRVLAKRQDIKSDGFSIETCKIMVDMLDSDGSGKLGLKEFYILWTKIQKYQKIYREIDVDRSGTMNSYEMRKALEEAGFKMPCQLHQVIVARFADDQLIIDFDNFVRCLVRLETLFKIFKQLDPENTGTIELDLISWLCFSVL
T3 sequence (P04632 1-268 partner): T1 sequence (P04632 1-268 partner)
Method: as §1, §2

[5] = tested on: calpain activity in SH-SY5Y cells; experiment: SH-SY5Y cellular calpain activity, Suc-LLVY-AMC fluorescence assay; format: cell-based; settings: Suc-LLVY-AMC substrate
Method: Calpain activity in SH-SY5Y cells and inhibition thereof were assessed by means of a homogeneous, fluorescence assay that uses the cell-permeable and pro-fluorescent calpain substrate Suc-LLVY-AMC (Sigma-Aldrich Inc). Upon intracellular calpain cleavage of Suc-LLVY-AMC, fluorescent amino-methyl-coumarin (AMC) is released into the media resulting in a continuous increase in fluorescence signal that is proportional to intra-cellular calpain activity.
Assays were typically setup by seeding SH-SY5Y cells in black 384-well plates at 40 k/per well in RPMI-1640 containing 1% serum followed by 37 C overnight incubation. Next morning, cells were pre-incubated for 30 min with serially diluted compounds followed by addition of 100 uM of Suc-LLVY-AMC substrate. The continuous increase in AMC fluorescence is monitored using a FLIPR, Tetra plate reader (Molecular Devices Inc) and slopes measured to report calpain activity. Dose response curves (slopes vs. log inhibitor concentration) were typically fit to a 4-parameter logistic function to extract IC50 values.

| SMILES | IC50 [1] [nM] | IC50 [2] [nM] | IC50 [3] [µM] | IC50 [4] [nM] | IC50 [5] [µM] |
| --- | --- | --- | --- | --- | --- |
| COc1ccc(Br)cc1C(=O)N[C@@H](Cc1ccccc1)C(=O)C(N)=O [Compound 35, (S)—N-(4-AMINO-3,4-DIOXO-1-PHENYLBUTAN-2-YL)-5-BROMO-2-METHOXYBENZAMIDE] | < 3000 | < 3000 | 10 to 25 | < 3000 | < 10 |
| NC(=O)C(=O)[C@H](Cc1ccccc1)NC(=O)c1c(F)cc(F)cc1F [Compound 3, (S)—N-(4-AMINO-3,4-DIOXO-1-PHENYLBUTAN-2-YL)-2,4,6-TRIFLUOROBENZAMIDE] | < 3000 | < 3000 | > 25 | < 3000 | 10 to 25 |
| NC(=O)C(=O)[C@H](Cc1ccccc1)NC(=O)c1c(F)cccc1C(F)(F)F [Compound 16, (S)—N-(4-AMINO-3,4-DIOXO-1-PHENYLBUTAIN-2-YL)-2-FLUORO-6-(TRIFLUOROMETHYL)BENZAMIDE] | < 3000 | < 3000 | 10 to 25 | < 3000 | > 25 |
| NC(=O)C(=O)[C@H](Cc1ccccc1)NC(=O)c1c(F)cccc1F [Compound 15, (S)—N-(4-AMINO-3,4-DIOXO-1-PHENYLBUTAN-2-YL)-2,6-DIFLUOROBENZAMIDE] | < 3000 | < 3000 | 10 to 25 | < 3000 | 10 to 25 |
| Cn1c2ccccc2c2c(C(=O)NC(C=O)Cc3ccccc3)cccc21 (stereo not drawn) [Compound 47, 9-METHYL-N-(1-OXO-3-PHENYLPROPAN-2-YL)-9H-CARBAZOLE-4-CARBOXAMIDE] | < 3000 | < 3000 | > 25 | < 3000 | < 10 |
| NC(=O)C(=O)[C@H](Cc1ccccc1)NC(=O)c1c(F)cccc1I [Compound 27, (S)—N-(4-AMINO-3,4-DIOXO-1-PHENYLBUTAN-2-YL)-2-FLUORO-6-IODOBENZAMIDE] | < 3000 | < 3000 | 10 to 25 | < 3000 | < 10 |
| Cc1ccc(F)c(C(=O)NC(C=O)Cc2ccccc2)c1Cl (stereo not drawn) [Compound 42, 2-CHLORO-6-FLUORO-3-METHYL-N-(1-OXO-3-PHENYLPROPAN-2-YL)BENZAMIDE] | < 3000 | < 3000 | 10 to 25 | < 3000 | < 10 |
| COc1ccc(Cl)cc1C(=O)NC(C=O)Cc1ccccc1 (stereo not drawn) [Compound 37, 5-CHLORO-2-METHOXY-N-(1-OXO-3-PHENYLPROPAN-2-YL)BENZAMIDE] | > 10000 | 3000 to 10000 | > 25 | < 3000 | > 25 |
| Cc1ccc(F)c(C(=O)N[C@@H](Cc2ccccc2)C(=O)C(N)=O)c1Cl [Compound 30, (S)—N-(4-AMINO-3,4-DIOXO-1-PHENYLBUTAN-2-YL)-2-CHLORO-6-FLUORO-3-METHYLBENZAMIDE] | < 3000 | < 3000 | 10 to 25 | < 3000 | < 10 |
| O=CC(Cc1ccccc1)NC(=O)c1c(Cl)ccc2ccccc12 (stereo not drawn) [Compound 44, 2-CHLORO-N-(1-OXO-3-PHENYLPROPAN-2-YL)-1-NAPHTHAMIDE] | < 3000 | < 3000 | < 10 | < 3000 | < 10 |
| NC(=O)C(=O)C(Cc1ccccc1)NC(=O)c1cccc2c1oc1ccccc12 (stereo not drawn) [Compound 9, N-(4-AMINO-3,4-DIOXO-1-PHENYLBUTAN-2-YL)DIBENZO[b,d]FURAN-4-CARBOXAMIDE] | < 3000 | < 3000 | > 25 | < 3000 | > 25 |
| Cc1ccc(Cl)c(C(=O)N[C@@H](Cc2ccccc2)C(=O)C(N)=O)c1F [Compound 31, (S)—N-(4-AMINO-3,4-DIOXO-1-PHENYLBUTAN-2-YL)-6-CHLORO-2-FLUORO-3-METHYLBENZAMIDE] | < 3000 | < 3000 | < 10 | < 3000 | < 10 |
